Test results reported in ChEMBL document CHEMBL1201862, “PubChem BioAssay data set” (2004).
The source made the active and inactive calls.

Experiments:
[1] = target: Glucose-6-phosphate 1-dehydrogenase (Homo sapiens, UniProt P11413); test: inhibition of Homo sapiens G6PD, dose series – biochemical, fluorescence, selectivity assay for P. falciparum G6PD inhibitor project, dose response (AID 504792); type: functional
Hexokinase HKDC1 = target: T1, Hexokinase HKDC1 (Homo sapiens, UniProt Q2TB90); test: activation of HKDC1 glucose phosphorylation – biochemical, W721R variant, dose response (AID 504730); type: functional
T1 sequence (Q2TB90 whole entry): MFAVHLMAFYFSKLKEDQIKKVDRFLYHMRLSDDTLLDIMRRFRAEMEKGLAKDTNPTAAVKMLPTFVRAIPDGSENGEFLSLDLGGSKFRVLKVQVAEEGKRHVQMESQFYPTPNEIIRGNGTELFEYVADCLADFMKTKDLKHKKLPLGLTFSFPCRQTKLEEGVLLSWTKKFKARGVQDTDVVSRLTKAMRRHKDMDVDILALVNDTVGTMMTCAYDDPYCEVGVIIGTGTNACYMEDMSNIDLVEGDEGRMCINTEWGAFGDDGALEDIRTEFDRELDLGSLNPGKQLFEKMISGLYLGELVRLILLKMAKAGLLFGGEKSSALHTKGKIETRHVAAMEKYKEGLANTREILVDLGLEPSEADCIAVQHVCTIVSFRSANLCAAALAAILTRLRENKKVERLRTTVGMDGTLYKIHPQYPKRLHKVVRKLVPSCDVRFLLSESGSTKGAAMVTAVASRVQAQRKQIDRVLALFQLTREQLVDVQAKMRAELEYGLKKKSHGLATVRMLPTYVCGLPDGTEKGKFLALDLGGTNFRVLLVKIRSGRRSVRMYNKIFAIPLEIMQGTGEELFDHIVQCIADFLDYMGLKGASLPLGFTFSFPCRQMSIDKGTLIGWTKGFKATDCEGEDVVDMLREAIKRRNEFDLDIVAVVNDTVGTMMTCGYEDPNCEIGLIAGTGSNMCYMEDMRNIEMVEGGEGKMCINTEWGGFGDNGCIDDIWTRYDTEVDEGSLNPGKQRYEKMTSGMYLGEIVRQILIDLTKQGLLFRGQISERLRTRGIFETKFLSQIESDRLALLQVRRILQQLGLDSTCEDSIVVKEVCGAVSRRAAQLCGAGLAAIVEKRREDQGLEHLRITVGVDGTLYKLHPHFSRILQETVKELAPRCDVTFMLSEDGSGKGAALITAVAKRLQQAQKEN

Hexokinase-1 = Hexokinase-1 (Homo sapiens, UniProt P19367); test: HK1 enzyme activation by HKDC1 hits – biochemical, selectivity assay for HKDC1 activator project, dose response (AID 504762); type: functional
Sequence of Hexokinase-1 (P19367 whole entry): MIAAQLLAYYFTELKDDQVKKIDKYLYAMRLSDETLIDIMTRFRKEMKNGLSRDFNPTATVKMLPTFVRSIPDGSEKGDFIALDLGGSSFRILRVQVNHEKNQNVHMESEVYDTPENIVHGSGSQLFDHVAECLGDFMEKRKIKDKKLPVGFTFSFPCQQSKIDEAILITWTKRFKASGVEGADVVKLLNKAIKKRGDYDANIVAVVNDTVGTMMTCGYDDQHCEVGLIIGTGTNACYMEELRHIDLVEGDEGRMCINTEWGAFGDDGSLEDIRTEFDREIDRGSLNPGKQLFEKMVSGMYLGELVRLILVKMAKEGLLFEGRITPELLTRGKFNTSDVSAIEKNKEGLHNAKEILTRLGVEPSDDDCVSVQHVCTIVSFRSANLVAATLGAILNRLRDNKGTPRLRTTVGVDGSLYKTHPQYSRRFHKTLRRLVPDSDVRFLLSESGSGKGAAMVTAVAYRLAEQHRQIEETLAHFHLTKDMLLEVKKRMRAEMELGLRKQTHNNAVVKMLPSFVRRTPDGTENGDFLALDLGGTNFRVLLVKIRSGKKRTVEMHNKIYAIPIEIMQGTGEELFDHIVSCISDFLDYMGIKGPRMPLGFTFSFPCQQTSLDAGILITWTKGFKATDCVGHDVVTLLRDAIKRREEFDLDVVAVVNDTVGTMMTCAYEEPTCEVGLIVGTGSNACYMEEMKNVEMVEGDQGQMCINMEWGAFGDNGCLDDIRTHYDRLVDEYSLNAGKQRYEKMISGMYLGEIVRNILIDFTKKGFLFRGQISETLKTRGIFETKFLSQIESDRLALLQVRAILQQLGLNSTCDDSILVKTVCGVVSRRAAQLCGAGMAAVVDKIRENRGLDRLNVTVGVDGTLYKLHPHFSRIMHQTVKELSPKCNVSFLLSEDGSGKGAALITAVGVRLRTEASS

[2] = target: T2, G-protein coupled receptor 35 (Homo sapiens, UniProt Q9HC97); test: SAR analysis of Agonists of the GPR35 Receptor using an Image-Based Assay - Set 4. [Related pubchem assays (depositor defined):AID2013, AID2026]; type: functional
T2 sequence (Q9HC97 whole entry): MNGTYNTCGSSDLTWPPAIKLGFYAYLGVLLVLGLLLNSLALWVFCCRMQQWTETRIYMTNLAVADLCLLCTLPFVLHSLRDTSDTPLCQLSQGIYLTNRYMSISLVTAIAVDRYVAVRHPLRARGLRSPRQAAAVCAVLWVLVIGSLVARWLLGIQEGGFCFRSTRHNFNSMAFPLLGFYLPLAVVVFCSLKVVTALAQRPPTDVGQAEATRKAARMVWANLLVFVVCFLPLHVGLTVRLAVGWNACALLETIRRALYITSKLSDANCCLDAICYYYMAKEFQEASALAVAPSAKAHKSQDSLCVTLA

Cannabinoid receptor 1 [3] = target: T3, Cannabinoid receptor 1 (Homo sapiens, UniProt P21554); test: SAR analysis of agonists of the Cannabinoid Receptor 1 using an Image-Based Assay - Set 4. [Related pubchem assays (depositor defined):AID2013, AID2026]; type: functional
T3 sequence (P21554 whole entry): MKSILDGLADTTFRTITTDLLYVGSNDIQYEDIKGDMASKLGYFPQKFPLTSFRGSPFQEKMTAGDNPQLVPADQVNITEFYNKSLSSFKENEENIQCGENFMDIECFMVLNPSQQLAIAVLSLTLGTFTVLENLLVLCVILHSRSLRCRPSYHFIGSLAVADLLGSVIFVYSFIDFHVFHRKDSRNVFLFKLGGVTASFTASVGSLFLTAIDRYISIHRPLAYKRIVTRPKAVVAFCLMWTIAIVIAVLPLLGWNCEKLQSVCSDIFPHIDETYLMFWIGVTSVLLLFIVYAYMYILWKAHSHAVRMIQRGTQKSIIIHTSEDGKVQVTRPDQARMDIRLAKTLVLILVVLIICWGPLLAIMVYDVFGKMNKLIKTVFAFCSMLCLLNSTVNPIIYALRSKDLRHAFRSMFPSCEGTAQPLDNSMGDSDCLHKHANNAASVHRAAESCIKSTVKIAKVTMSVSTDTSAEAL

[4] = target: T2, G-protein coupled receptor 35; test: SAR analysis of Antagonists of the GPR35 Receptor using an Image-Based Assay - Set 6. [Related pubchem assays (depositor defined):AID2013, AID2026]; type: functional
Cannabinoid receptor 1 [5] = target: T3, Cannabinoid receptor 1; test: SAR analysis of antagonists of the Cannabinoid Receptor 1 using an Image-Based Assay - Set 4. [Related pubchem assays (depositor defined):AID2013, AID2026]; type: functional
[6] = target: G-protein coupled receptor 55 (Homo sapiens, UniProt Q9Y2T6); test: SAR Analysis of Selective Antagonists of GPR55 using an Image-Based Assay - Set 4. [Related pubchem assays (depositor defined):AID2013, AID2026]; type: functional;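 note: antagonism of response to 5 µM lysophosphatidylinositol agonist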
Sequence of G-protein coupled receptor 55 (Q9Y2T6 whole entry): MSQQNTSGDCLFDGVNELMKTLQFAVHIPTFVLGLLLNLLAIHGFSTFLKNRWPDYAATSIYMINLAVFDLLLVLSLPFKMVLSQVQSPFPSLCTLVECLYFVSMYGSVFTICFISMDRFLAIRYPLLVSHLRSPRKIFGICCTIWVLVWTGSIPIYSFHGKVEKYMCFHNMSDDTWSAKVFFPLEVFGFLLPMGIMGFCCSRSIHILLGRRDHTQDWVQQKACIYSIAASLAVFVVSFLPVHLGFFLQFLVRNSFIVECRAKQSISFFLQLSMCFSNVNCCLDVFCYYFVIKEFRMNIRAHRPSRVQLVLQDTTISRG

Cannabinoid receptor 2 [7] = target: T4, Cannabinoid receptor 2 (Homo sapiens, UniProt P34972); test: SAR analysis of antagonists of the Cannabinoid Receptor 2 using an Image-Based Assay - Set 3. [Related pubchem assays (depositor defined):AID2013, AID2026]; type: functional
T4 sequence (P34972 whole entry): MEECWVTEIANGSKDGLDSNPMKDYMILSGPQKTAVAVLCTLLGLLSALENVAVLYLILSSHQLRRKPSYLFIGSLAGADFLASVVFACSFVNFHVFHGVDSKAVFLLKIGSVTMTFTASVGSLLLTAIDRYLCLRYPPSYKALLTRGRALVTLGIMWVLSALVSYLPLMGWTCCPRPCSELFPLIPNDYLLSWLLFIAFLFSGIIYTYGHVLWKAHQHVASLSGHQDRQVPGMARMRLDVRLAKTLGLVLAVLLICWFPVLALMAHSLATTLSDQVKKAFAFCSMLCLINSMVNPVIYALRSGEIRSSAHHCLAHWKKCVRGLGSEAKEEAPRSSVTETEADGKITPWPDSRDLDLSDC

Cannabinoid receptor 2 [8] = target: T4, Cannabinoid receptor 2; test: SAR analysis of agonists of the Cannabinoid Receptor 2 using an Image-Based Assay - Set 3. [Related pubchem assays (depositor defined):AID2013, AID2026]; type: functional
Coagulation factor XII = target: T5, Coagulation factor XII (Homo sapiens, UniProt P00748); test: Factor XIIa Dose Response Confirmation from Single Well HTS. [Related pubchem assays (depositor defined):AID701]; type: functional
T5 sequence (P00748 whole entry): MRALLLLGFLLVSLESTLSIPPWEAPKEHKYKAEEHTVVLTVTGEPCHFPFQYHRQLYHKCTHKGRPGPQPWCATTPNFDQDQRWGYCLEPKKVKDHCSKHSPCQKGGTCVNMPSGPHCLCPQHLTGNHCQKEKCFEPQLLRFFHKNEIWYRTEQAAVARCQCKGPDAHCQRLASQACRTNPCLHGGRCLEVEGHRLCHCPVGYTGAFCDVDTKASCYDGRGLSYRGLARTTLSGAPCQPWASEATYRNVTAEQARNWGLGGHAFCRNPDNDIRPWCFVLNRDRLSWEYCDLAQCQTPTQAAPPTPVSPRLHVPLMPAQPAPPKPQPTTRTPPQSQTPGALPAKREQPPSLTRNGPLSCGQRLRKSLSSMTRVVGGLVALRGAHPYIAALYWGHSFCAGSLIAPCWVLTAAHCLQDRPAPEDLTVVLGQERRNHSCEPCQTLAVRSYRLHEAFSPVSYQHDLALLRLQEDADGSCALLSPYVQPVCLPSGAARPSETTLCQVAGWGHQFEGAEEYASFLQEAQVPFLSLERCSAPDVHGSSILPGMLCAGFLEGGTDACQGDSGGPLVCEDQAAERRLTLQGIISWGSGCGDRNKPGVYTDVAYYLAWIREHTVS

Ion channel NompC = Ion channel NompC (Danio rerio, UniProt Q7T1G6); test: Dose response cell-based high-throughput screening assay for agonists of the transient receptor potential channel N1 (TRPN1). [Related pubchem assays (depositor defined):AID1424, AID1448]; type: functional
Sequence of Ion channel NompC (Q7T1G6 whole entry): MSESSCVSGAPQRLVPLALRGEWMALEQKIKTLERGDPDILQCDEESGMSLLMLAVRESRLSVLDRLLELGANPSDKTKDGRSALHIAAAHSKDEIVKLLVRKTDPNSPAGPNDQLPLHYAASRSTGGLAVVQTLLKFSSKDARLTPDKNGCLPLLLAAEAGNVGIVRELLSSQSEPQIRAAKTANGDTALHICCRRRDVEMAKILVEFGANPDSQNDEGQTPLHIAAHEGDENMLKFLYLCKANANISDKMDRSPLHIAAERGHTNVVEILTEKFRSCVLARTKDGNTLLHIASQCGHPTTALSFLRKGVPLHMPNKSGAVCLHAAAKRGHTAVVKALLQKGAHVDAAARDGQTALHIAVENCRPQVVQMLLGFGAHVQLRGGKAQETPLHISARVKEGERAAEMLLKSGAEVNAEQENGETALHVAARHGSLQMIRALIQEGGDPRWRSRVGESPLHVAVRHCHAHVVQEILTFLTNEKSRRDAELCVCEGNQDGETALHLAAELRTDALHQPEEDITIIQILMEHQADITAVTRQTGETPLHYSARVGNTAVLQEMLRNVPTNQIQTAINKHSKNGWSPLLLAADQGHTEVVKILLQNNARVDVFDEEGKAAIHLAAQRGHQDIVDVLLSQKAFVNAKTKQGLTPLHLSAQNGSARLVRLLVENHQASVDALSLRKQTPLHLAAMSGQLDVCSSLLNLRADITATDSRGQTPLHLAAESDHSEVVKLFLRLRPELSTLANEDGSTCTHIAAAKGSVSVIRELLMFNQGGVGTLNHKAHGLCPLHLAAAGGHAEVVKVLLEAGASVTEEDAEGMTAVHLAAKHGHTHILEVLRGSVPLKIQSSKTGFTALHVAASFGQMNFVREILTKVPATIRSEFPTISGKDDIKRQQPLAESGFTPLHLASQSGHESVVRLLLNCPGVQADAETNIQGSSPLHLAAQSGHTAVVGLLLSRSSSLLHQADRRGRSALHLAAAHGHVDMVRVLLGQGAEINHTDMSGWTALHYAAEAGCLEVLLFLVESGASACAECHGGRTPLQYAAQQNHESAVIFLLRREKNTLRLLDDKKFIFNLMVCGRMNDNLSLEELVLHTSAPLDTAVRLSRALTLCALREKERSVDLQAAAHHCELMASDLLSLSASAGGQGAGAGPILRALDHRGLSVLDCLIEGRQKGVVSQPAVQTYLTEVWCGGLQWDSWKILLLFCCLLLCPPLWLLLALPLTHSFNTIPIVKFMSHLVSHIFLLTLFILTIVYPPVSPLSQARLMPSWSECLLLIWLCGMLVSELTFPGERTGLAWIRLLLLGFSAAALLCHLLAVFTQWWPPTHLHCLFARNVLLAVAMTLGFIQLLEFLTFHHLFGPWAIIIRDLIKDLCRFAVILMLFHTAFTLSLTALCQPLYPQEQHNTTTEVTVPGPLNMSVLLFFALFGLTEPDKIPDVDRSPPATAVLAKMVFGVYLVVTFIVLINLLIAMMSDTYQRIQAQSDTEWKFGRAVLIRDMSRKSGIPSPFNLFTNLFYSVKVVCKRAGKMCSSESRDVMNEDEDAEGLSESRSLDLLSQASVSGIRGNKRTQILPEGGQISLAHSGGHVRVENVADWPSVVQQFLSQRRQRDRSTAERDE

Mucolipin-3 = target: T6, Mucolipin-3 (Homo sapiens, UniProt Q8TDD5); test: Fluorescence counterscreen assay for […] agonists: dose response cell-based high-throughput screening assay to identify agonists of the transient receptor potential channel ML3 (TRPML3). [Related pubchem assays: 1424, 1448 ]; type: functional
T6 sequence (Q8TDD5 whole entry): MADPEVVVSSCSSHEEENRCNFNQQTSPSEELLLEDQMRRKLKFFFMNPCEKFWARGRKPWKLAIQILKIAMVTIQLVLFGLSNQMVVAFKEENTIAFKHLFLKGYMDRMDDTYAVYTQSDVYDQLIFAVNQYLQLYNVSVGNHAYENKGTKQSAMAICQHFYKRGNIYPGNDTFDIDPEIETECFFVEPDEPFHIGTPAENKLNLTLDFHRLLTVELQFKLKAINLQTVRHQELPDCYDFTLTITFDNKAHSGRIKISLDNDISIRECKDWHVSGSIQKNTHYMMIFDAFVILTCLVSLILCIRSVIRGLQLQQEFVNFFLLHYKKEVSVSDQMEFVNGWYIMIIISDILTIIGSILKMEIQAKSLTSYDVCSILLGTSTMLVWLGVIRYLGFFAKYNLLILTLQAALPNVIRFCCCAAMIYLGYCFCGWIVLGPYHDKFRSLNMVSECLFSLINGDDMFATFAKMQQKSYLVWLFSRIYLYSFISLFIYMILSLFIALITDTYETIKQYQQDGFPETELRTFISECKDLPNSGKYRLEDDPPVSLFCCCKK

[9] = target: T7, Heat shock factor protein 1 (Mus musculus, UniProt P38532); test: enhancement of HSF1-driven luciferase signal – cell-based, NIH3T3, luminescence, dose retest, confirmation (AID 435004); type: functional;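 note: stress induced by proteasome inhibitor MG132 added 30 min after compound; luciferase reporter driven by HSF1 response element in NIH3T3 cells; actives raise luminescence as potentiators of the MG132 stress response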
T7 sequence (P38532 whole entry): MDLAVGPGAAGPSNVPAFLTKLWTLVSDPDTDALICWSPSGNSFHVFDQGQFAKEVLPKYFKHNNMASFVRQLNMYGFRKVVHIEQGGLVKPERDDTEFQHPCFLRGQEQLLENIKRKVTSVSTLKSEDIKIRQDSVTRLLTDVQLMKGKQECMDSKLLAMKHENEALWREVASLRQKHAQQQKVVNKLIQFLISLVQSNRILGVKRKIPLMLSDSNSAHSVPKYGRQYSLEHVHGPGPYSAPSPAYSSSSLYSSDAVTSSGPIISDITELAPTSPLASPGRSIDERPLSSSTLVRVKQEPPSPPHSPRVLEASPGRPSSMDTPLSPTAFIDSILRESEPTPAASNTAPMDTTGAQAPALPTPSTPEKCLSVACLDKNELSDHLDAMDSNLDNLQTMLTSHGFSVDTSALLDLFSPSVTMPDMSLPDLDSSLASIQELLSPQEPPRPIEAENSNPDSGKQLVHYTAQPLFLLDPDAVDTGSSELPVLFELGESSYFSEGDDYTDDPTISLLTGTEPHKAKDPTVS

[10] = target: UDP-galactopyranose mutase (Mycobacterium tuberculosis, UniProt P9WIQ1); test: Inhibitors of Mycobacterium tuberculosis UDP-galactopyranose mutase (UGM) enzyme Measured in Biochemical System Using Plate Reader - 2105-02_Inhibitor_Dose_CherryPick_Activity. [Related pubchem assays (depositor defined):AID504439]
Sequence of UDP-galactopyranose mutase (P9WIQ1 whole entry): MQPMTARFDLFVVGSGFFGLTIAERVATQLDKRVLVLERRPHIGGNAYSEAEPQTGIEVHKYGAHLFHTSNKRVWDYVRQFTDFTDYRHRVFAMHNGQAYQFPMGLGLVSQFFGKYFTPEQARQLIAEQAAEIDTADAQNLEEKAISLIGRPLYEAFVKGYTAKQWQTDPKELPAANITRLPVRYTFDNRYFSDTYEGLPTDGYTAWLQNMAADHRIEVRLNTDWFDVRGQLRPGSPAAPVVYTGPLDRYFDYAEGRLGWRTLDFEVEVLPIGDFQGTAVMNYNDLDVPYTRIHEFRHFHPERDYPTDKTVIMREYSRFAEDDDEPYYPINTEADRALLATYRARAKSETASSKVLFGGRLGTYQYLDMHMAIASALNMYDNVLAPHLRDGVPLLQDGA

cells = type: functional
BJ = test: growth inhibition of engineered Ras-driven BJ cells – cell-based, alamar blue fluorescence, cherrypicked samples, dose response (AID 2631); type: functional; conditions: Homo sapiens;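 note: confirmatory dose-response assay in RAS-dependent BJ fibroblasts engineered with TERT, LT and ST, with cytotoxicity read by fluorescence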
[11] = target: Kappa-type opioid receptor (Homo sapiens, UniProt P41145); test: SAR analysis of small molecule agonists of the kappa opioid receptor via a luminescent beta-arrestin assay - Set 3. [Related pubchem assays (depositor defined):AID1777, AID1785, AID1786, AID1966, AID2133, AID2136, AID2284, AID2500]; type: functional

Sequence of Glucose-6-phosphate 1-dehydrogenase (P11413 whole entry): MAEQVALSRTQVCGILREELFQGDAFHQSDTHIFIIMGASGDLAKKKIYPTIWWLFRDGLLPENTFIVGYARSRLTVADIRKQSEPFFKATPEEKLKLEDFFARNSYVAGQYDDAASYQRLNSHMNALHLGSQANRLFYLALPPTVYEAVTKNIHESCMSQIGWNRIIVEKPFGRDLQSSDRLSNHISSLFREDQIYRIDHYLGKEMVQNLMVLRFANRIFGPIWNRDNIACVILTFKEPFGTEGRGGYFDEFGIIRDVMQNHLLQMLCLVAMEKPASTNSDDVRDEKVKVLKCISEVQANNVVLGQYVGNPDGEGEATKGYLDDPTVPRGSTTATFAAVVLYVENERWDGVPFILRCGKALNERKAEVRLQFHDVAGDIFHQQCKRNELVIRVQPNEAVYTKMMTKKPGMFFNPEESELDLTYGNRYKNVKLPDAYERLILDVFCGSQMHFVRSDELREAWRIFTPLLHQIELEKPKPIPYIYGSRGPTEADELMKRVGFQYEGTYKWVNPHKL

O=C(Nc1ccc(N2CCCC2)cc1)c1cccc(-c2cc3ccccc3oc2=O)c1
IC50 [1]: > 80 µM (inactive)
EC50 (Hexokinase HKDC1): 13.6 µM (active)
EC50 (Hexokinase-1): > 80 µM (inactive)

Cc1nc(N2CCN(C(=O)c3cccs3)CC2)c2c3c(sc2n1)CCCC3
EC50 [2]: > 32 µM (inactive)
EC50 (Cannabinoid receptor 1 [3]): > 32 µM (inactive)
IC50 [4]: > 32 µM (inactive)
IC50 (Cannabinoid receptor 1 [5]): 3.94 µM (active)
IC50 [6]: 4.13 µM (active)
IC50 (Cannabinoid receptor 2 [7]): > 32 µM (inactive)
EC50 (Cannabinoid receptor 2 [8]): > 32 µM (inactive)

COc1ccc(-n2cc3c(-c4cccc(Br)c4)nnc(C)c3n2)cc1
EC50 [2]: > 32 µM (inactive)
EC50 (Cannabinoid receptor 1 [3]): > 32 µM (inactive)
IC50 [4]: > 32 µM (inactive)
IC50 (Cannabinoid receptor 1 [5]): 0.946 µM (active)
IC50 [6]: 8.04 µM (active)
IC50 (Cannabinoid receptor 2 [7]): 5.4 µM (active)
EC50 (Cannabinoid receptor 2 [8]): > 32 µM (inactive)

COc1cc(OC)cc(-c2nnc(SCc3cccc(C(=O)O)c3)o2)c1
IC50 (Coagulation factor XII): > 50 µM (inactive)

Cc1cc2nc3c(=O)n(CCc4ccccc4)c(=O)[nH]c3nc2cc1N
EC50 (Ion channel NompC): 3.55 µM (active)
EC50 (Mucolipin-3): 6.23 µM (active)
EC50 [9]: > 260 µM (inactive)
AC50 [10]: 2.29 µM (active)

CCOC(=O)Cn1c2ccc(F)cc2c2nc(C)sc21
EC50 (Hexokinase HKDC1): 59.1 µM (inactive)
EC50 (Hexokinase-1): 56.2 µM (inactive)
IC50 (cells): 14.2 µM (active)

COc1ccc2[nH]c3c(NCCC4=CCCCC4)ncnc3c2c1
EC50 (Ion channel NompC): > 29.9 µM (inactive)
EC50 (Mucolipin-3): > 29.9 µM (not active)
EC50 (BJ): > 133 µM (inactive)

Brc1ccc(CSc2nnc(-c3ccccn3)n2Cc2ccccc2)cc1
EC50 [11]: 4.06 µM (active)

O=C(c1cn(-c2ccccc2)nc1-c1ccncc1)n1nnc2ccccc21
IC50 (Coagulation factor XII): 0.973 µM (active)
